# Data as given in patent US8927594B2, “Compounds from soft coral, method of preparation and pharmaceutical uses thereof” (National Sun Yat-Sen University, priority 2010, dated 2015).
# Columns and labels:
# COX-2 = COX-2 protein expression in LPS-stimulated RAW264.7 macrophage cells, immunoblot analysis; format: cell-based, mouse; conditions: for effect on expression of cyclooxygenase-2 of macrophage cells stimulated with LPS (in words, summary): concentration not stated; for effect on COX-2 expression with LPS treatment (in words): FIG. 2
# Protocol: (§1) A mouse macrophage cell line, RAW 264.7, purchased from the American Type Culture Collection (ATCC, No TIB-71) was chosen in the in vitro model. The cells were cultured in DMEM (Dulcbecco/s Modified Eagle medium) containing 10% fetal bovine serum (FBS) and penicillin G (100 U/ml) and streptomycin (100 μg/ml) at 37° C. and 5% CO2. When reaching 80% confluence, the cells were subcultured with trypsin. The cells were subjected to an anti-inflammation assay after subcultured for 36 hours. 3×10^6 RAW264.7 cells were cultured in a 10-cm culture dish and administered with lipopolysaccharide (LPS, 0.01 μg/ml; Sigma L2654). After 16 hours, the cells were collected. In an experiment group, the compound represented by formula 3 was added into the culture dish and followed by LPS before 10 minutes.
# (§2) The collected RAW264.7 cells were dissolved with 200 μL of 4° C. lysis buffer (50 mM Tris [pH 7.5], 150 mM NaCl, 1% TritonX-100, 0.1 mM EDTA, 0.1 mM EGTA, 10 μg PMSF, 1 aprotinin, 20 mM NaF, and 0.2 mM Na3VO4). The samples were centrifuged at 25,000 g for 30 minutes at 4° C. for removing the pellet. The supernatant was assayed with Bio-Rad DC protein assay kit (Bio-Rad Laboratories, Hercules, Calif., USA) and the absorbance was read with an ELISA reader (Thermo Electron Corporation, USA) for estimating the protein contents. The calibrated samples with equal volumes were added with a sample buffer (2% SDS, 10% glycerol, 0.1% bromophenol blue, 10% 2-mercaptoethanol, and 50mM Tris) of the same volume. Proteins were separated with 10% SDS-PAGE and transferred to a PVDF membrane ([…], Immobilon-P, Millipore, Bedford, Mass., USA) (1.5 A, 4° C., 2.5 hours). The transferred PVDF membranes were blocked with TTBS (Tris-HCl 20 mM, NaCl 137 mM, pH 7.4 and 0.1% Tween 20) containing 5% skim milk at room temperature for 1 hour and reacted with polyclonal anti-inducible nitric oxide synthase antibody (Transduction Laboratories, Lexington, Ky., USA) or polyclonal anti-cyclooxygenase-2 antibody (Cayman, Ann Arbor, Mich., USA) at room temperature for 3 hours. After washed with TTBS three times, the samples were reacted with HRP-conjugated anti-rabbit IgG antibody (1:2000) at room temperature for 1 hour. After washed with TTBS for three times, an enhanced chemiluminescence detection kit was used for reating with the PVDF membrane and exposed with an X-ray film (Kodak X-OMAT LS, Kodak, Rochester, N.Y., USA) for detecting the protein expression. The relative amount was calculated with Image-Pro plus 4.5 software (Media Cybernetics, Silver Spring, USA). The group added with only LPS was taken as 100%. β-actin (monoclonal antibody, Sigma, St Louis, Mo., USA) was taken as an internal control.
# iNOS = iNOS protein expression in LPS-stimulated RAW264.7 macrophage cells, immunoblot analysis; format: cell-based, mouse; conditions: for levels of iNOS protein relative to control cells stimulated with LPS only: concentration of 10 mM (so in the source), LPS alone = 100%, mean±SEM, n=6; for effect on expression of inducible nitric oxide synthase of macrophage cells stimulated with LPS (in words, summary): concentration not stated; for effect on expression of iNOS protein relative to control cells stimulated with LPS only (in words): FIG. 2
# Protocol: as §1, §2
# [1] = Cytotoxicity, MTT colorimetric method, MCF-7; format: cell-based; conditions: human, MCF-7 cells (breast carcinoma)
# Protocol: (§3) Cell lines were purchased from the American Type Culture Collection (ATCC). Cytotoxicity assays were performed using the MTT [3-(4,5-dimethylthiazol-2-yl)-2,5-diphenyltetrazolium bromide] colorimetric method.
# [2] = Cytotoxicity, MTT colorimetric method, Ca9-22; format: cell-based; conditions: human, Ca9-22 cells (gingival carcinoma)
# Protocol: as §3
# [3] = Cytotoxicity, MTT colorimetric method, MDA-MB-231; format: cell-based; conditions: human, MDA-MB-231 cells (breast carcinoma)
# Protocol: as §3
# [4] = Cytotoxicity, MTT colorimetric method, Hep 3B; format: cell-based; conditions: human, Hep 3B cells (hepatocellular carcinoma)
# Protocol: as §3
# [5] = Cytotoxicity, MTT colorimetric method, Hep G2; format: cell-based; conditions: human, Hep G2 cells (hepatocellular carcinoma)
# Protocol: as §3
# [6] = Cytotoxicity, MTT colorimetric method, A549; format: cell-based; conditions: human, A549 cells (lung carcinoma)
# Protocol: as §3
# [7] = 10 μM, RAW264.7 cells + LPS, same experimental condition
smiles,measurement,setting,value
"O=C(/C=C/c1ccc(O)c(O)c1)OCCc1ccccc1 [CAPE, caffeic acid phenylethyl ester, reference compound]","level of COX-2, relative intensity (LPS alone = 100%)",COX-2; [7],67.2±13.4%
same,"level of iNOS, relative intensity (LPS alone = 100%)",iNOS; [7],2.5±3.7%
C=C1CC[C@@H](O)[C@]2(C)C[C@H](OC(C)=O)[C@@H]3[C@@H]([C@@H](C(C)C)CC[C@@]3(C)O)[C@H]12 [formula 16],IC50,[1],9.9 µg/mL
same,IC50,[2],13.6 µg/mL
same,IC50,[3],16 µg/mL
same,IC50,[4],9.6 µg/mL
same,IC50,[5],12.5 µg/mL
same,IC50,[6],15.3 µg/mL
CCCC(=O)O[C@]1(C)CCC[C@@](C)([S+](C)[O-])C[C@H]2O[C@@H]1[C@H]1[C@@H]2[C@](C)(OC(C)=O)CC[C@@H]1C(C)C (stereo partly shown) [formula 2],levels of iNOS protein relative to control cells stimulated with LPS only,iNOS; RAW264.7 cells + LPS,8.8±1.0%
same,"effect on expression of inducible nitric oxide synthase of macrophage cells stimulated with LPS (in words, summary)",iNOS,significantly lowered
C=C1C[C@H]2O[C@H]([C@@H]3[C@@H](C(C)C)[C@H](OC(=O)CC[S+](C)[O-])[C@@H](OC(C)=O)[C@@](C)(O)[C@@H]32)[C@](C)(OC(=O)CCC)CC[C@@H]1O (stereo partly shown) [formula 4],COX-2 expression relative to control cells stimulated with LPS only,"COX-2; concentration of 10 mM (so in the source), RAW264.7 cells + LPS, LPS alone = 100%, mean±SEM, n=6",7.2±2.5%
same,"effect on expression of cyclooxygenase-2 of macrophage cells stimulated with LPS (in words, summary)",COX-2,significantly lowered
same,levels of iNOS protein relative to control cells stimulated with LPS only,iNOS; RAW264.7 cells + LPS,11.3±1.5%
same,"effect on expression of inducible nitric oxide synthase of macrophage cells stimulated with LPS (in words, summary)",iNOS,significantly lowered
C/C1=C/[C@@H]2[C@@H](C(C)C)CC[C@@](C)(O)[C@@H]2CC/C(C)=C/CC1 [formula 14],effect on COX-2 expression with LPS treatment (in words),"COX-2; 10 μM, RAW264.7 cells + LPS",effectively reduce
same,"effect on expression of cyclooxygenase-2 of macrophage cells stimulated with LPS (in words, summary)",COX-2,effectively reduce
same,effect on expression of iNOS protein relative to control cells stimulated with LPS only (in words),"iNOS; 10 μM, RAW264.7 cells + LPS",significantly reduce
same,"effect on expression of inducible nitric oxide synthase of macrophage cells stimulated with LPS (in words, summary)",iNOS,significantly reduce
CCCC(=O)O[C@]1(C)CC[C@H](OC(C)=O)[C@@](C)(O)C[C@H]2O[C@@H]1[C@@H]1[C@@H](C(C)C)[C@H](OC(C)=O)[C@@H](OC(C)=O)[C@@](C)(O)[C@@H]12 [formula 11],effect on COX-2 expression with LPS treatment (in words),"COX-2; 10 μM, RAW264.7 cells + LPS",enhance the expression
same,effect on expression of iNOS protein relative to control cells stimulated with LPS only (in words),"iNOS; 10 μM, RAW264.7 cells + LPS",enhance the expression
CCCC(=O)O[C@H]1[C@H](C(C)C)[C@@H]2[C@@H]([C@H]3C[C@](C)([S+](C)[O-])CCC[C@@](C)(OC(=O)CCC)[C@@H]2O3)[C@](C)(O)[C@@H]1OC(C)=O (stereo partly shown) [formula 3],levels of iNOS protein relative to control cells stimulated with LPS only,iNOS; RAW264.7 cells + LPS,17.8±4.7%
same,"effect on expression of inducible nitric oxide synthase of macrophage cells stimulated with LPS (in words, summary)",iNOS,significantly lowered
